These results are taken from PMC10060569 (Frontiers in Pharmacology, 2023).

Usually inhibition stands for the change of the read-out against control, counted positive when it falls.

This test has as its target T1, native pig P2X2/3Rs in DRG neurons (Sus scrofa, UniProt F1RI70+I3L7H5).
T1 sequence (I3L7H5 1-397): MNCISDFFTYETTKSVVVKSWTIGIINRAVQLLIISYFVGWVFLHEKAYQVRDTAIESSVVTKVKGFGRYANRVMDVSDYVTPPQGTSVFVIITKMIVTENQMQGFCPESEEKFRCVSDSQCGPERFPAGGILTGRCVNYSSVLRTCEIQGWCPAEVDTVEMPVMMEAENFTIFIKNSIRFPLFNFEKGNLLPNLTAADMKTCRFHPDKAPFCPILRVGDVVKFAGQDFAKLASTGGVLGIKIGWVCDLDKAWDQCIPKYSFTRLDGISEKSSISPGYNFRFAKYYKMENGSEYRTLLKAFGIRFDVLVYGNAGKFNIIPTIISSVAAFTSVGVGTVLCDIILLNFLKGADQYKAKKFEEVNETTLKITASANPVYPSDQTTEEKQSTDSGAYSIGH
T1 sequence (F1RI70 1-417): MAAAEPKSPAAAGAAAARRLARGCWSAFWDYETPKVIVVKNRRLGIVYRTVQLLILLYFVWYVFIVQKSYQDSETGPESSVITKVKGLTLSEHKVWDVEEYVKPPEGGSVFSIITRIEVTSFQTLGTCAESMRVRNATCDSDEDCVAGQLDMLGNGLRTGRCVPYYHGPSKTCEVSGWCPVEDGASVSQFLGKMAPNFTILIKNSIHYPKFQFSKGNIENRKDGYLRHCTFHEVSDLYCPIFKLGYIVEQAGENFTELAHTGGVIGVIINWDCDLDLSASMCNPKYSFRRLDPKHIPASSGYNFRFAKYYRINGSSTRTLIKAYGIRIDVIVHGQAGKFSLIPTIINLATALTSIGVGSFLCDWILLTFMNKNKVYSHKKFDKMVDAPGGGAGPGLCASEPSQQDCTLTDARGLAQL
Kind of test: Whole-cell patch-clamp of α,β-meATP-induced currents in pig DRG neurons. In general terms: Patch clamp records ionic current or voltage across a cell membrane.

Setting [1] is: 100 µM diclofenac, 10 µM α,β-meATP, n = 11.

Method: For this purpose, pigs of the German Landrace breed, with an average age of 15 weeks (14.6 SD2.7) and weight of 47.3 kg (SD11.2), were euthanized using an overdose of pentobarbital 60 mg/kg body weight. Subsequently, the DRG were collected. The DRG of pigs were transferred on ice, and fine excision was performed in ice-cold DMEM F12 medium containing 10% FBS and treated with 1 mg/ml collagenase P, 1 mg/ml trypsin T1426, and 0.1 mg/ml DNAse for digestion. Then, the DRG were cut into small pieces inside the digestion medium for surface enlargement and incubated at 37°C and 5% CO2 for 120 ±30 min. After approximately 60 min in the digestion medium, the DRG were triturated using a glass pipette. After the full incubation time, they were triturated thrice using custom-pulled glass pipettes with decreasing tip diameters (from ∼1.1–1.2 to ∼0.3–0.4 mm). For further purification, the DRG were centrifuged at 500 G and 4°C twice for 4 minutes each, and the pellets were suspended in DMEM F12 with 10% FBS. They were subsequently separated from lighter cell fragments and myelin by centrifugation of a Percoll gradient containing a 60% Percoll and a 25% Percoll gradient for 20 min at 500 G. DRG neurons were plated on coverslips coated with poly-D-lysine (100 μg/ml), laminin (10 μg/ml), and fibronectin (10 μg/ml). Neurons were then cultured in neurobasal A medium supplemented with B27, penicillin, streptomycin, and L-glutamine and used for voltage-clamp recordings after 12–72 h in culture.
Whole-cell voltage-clamp recordings of DRG neurons were performed using glass electrodes with micropipette tip resistances of 1.3–3.5 MΩ, pulled and fire-polished with a Zeitz DMZ-puller. The intracellular solution contained 10 mM NaCl, 140 mM CsF, 10 mM HEPES, 1 mM EGTA, 5 mM glucose, and 5 mM TEA-Cl (adjusted to pH 7.3 using CsOH). The extracellular bathing solution contained 140 mM NaCl, 3 mM KCl, 1 mM MgCl2, 1 mM CaCl2, 10 mM HEPES, and 20 mM glucose (adjusted to pH 7.4 using NaOH). The liquid junction potential was corrected by −7.8 mV. […]

As to `O=C(O)Cc1ccccc1Nc1c(Cl)cccc1Cl` [Diclofenac, diclofenac], under setting [1], the “mean block ± SD, fourth application vs. mean of third and fifth application” value is 70.9 ± 37.2%; the “mean block ± SD, fourth application vs. preceding third application” value is listed as 70.2 ± 34.3%. For the same compound, where the note is “DRG neuron, read-out: inhibition of α,β-meATP-elicited whole-cell currents by 100 µM diclofenac”, the inhibition at 100 µM was found to be 70.5%.
